In test [1] the target is T1, intrinsic renin contained in the renatured human plasma (Homo sapiens, UniProt P00797).
T1 construct: intrinsic renin contained in the renatured plasma; tissue Ortho Bi-Level Plasma Renin Control; host or cells: human plasma (lyophilized, renatured in water)
T1 sequence (P00797 67-406): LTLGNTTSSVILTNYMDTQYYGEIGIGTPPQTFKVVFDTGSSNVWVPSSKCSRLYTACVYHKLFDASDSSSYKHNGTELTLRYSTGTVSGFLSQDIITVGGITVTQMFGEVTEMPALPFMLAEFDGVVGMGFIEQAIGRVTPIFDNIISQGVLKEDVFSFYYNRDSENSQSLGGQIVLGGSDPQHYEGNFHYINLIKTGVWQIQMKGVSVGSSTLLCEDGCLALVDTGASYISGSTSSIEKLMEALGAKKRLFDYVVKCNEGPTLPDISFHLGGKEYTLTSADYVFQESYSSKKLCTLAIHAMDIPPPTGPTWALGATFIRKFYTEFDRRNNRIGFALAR
Put plainly: Renin inhibition in vitro (angiotensin I production in renatured human plasma, RIA). Type of test: biochemical. Particulars: 60 minutes incubation, read-out: IC50 (concentration which inhibits renin activity by 50%). The procedure: Commercially available lyophilized human plasma (Ortho, Bi-Level Plasma Renin Control) was renatured by dissolving in water. Angiotensinogen was allowed to react with intrinsic renin contained in the renatured plasma to generate angiotensin I (AI), which was quantitatively measured with radioimmunoassay (RIA). Thus, potency of the plasma renin was determined on the basis of the AI production. For this purpose, Renin RIA kit (RENIN' RIABEAD®) manufacture by Dinabott was used. All of the reagents necessary for the measurement of the AI production were available from the attachment of the kit, and the measurement was conducted according to the manufacturer's direction.
To the plasma (0.2 ml) were added all of the reagents, and the mixture was combined with either of sample solutions (0.002 ml) of various concentrations which had been prepared by dissolving a test compound in different amount of ethanol. Ethanol (0.002 ml) containing no test compound was used as a control solution. The amount of AI produced was measured after 60 minutes incubation. Renin inhibition potency of test compound was determined by comparing the amount of AI produced by a sample solution with that produced by a control solution.

Another test has as its target T2, Plasma renin activity (Macaca fascicularis, UniProt Q6DLS0).
T2 construct: Two milliliters of blood was collected from femoral vein; from tissue; host or cells: plasma of cynomolgus monkeys made hyperreninemic by low sodium diet and furosemide
T2 sequence (Q6DLS0 67-406): T1 sequence (P00797 67-406) with T2A, I148L, S169A
Put plainly: Renin inhibition in vivo (plasma renin activity after oral administration to hyperrenin monkeys). Also noted: species or system Crab-eating monkeys (Cynomolgus monkeys). The settings on record: low sodium diet + furosemide; for Renin inhibition potency, 4 h: 4 h after administration; for Renin inhibition potency, 8 h: 8 h after administration. The method, then: Crab-eating monkeys (Cynomolgus monkeys) (2.8-5.0 kg) were fed on low sodium diet (Na 7.15 mg/100 g feed) for six days, during which the monkeys intramuscularly received furosemide (2 mg/kg body weight) every other day from the second day of the experiment, in order to make the monkeys hyperrenin condition.
After seven days from the low sodium feeding, the monkeys were restrained on a monkey chair. Compounds to be tested are dissolved in 0.1 M citric acid/physiological saline or suspended in water with addition of β-cyclodextrin, and orally administered to the monkeys using a stomach probe (15 mg/kg body weight). […] For the blood collection, an injection syringe containing 30 μl of 6% aqueous EDTA·2Na solution was used. The collected blood was transferred into a test tube and centrifuged (3000 rpm, 10 minutes) at 4° C., and the resultant supernatant was used to determine the renin content. Plasma renin activity (AI(ng)/ml/h value) was measured using Radioimmunoassy kit commercially available from Dinabott Co. in the same manner as in the foregoing in vitro test. Renin inhibition potencies of the compounds tested, which were expressed as a percentage of renin activity relative to the activity before the administration, are listed in Table 12.

Changes are numbered by the printed parent chain.

As to `O=C(C[C@H](O)[C@H](CC1CCCCC1)NC(=O)[C@H](Cc1cscn1)NC(=O)[C@@H](CC(=O)N1CCOCC1)Cc1cccc2ccccc12)NCCN1CCOCC1` [ES-6864, reference compound], the IC50 in test [1] worked out at 3.75 nM.
In the case of `CC(C)(C)S(=O)(=O)C[C@@H](Cc1ccccc1)C(=O)N[C@@H](Cc1c[nH]cn1)C(=O)N[C@@H](CC1CCCCC1)[C@@H](O)CC(=O)c1ccncc1` [Example 1, 3-t-Butylsulfonyl-2(S)-phenylmethylpropionyl-His-1(S)-cyclohexylmethyl-2(S)-hydroxy-4-oxo-4-(4-pyridyl)butylamide], the IC50 in test [1] stood at 6.09 nM. Further, on Plasma renin activity (30 mg/kg orally), the “Renin inhibition potency, Max” value turned out to be 33%; the “Renin inhibition potency, Mean” value was 22%; the “Renin inhibition potency, 4 h” value is listed as 22%.
On to `COc1ccc(C(=O)C[C@H](O)[C@H](CC2CCCCC2)NC(=O)[C@H](Cc2c[nH]cn2)NC(=O)[C@H](Cc2ccccc2)CS(=O)(=O)C(C)(C)C)cc1` [Example 22], for which, in test [1], the IC50 worked out at 39.2 nM.
On the same count and under the same terms, in the case of `CC(C)S(=O)(=O)C[C@@H](Cc1ccccc1)C(=O)N[C@@H](Cc1c[nH]cn1)C(=O)N[C@@H](CC1CCCCC1)[C@@H](O)CC(=O)c1ccccc1` [Example 37] it was 14.5 nM.
The same measure, in the same setting: in the case of `CCS(=O)(=O)C[C@@H](Cc1ccccc1)C(=O)N[C@@H](Cc1c[nH]cn1)C(=O)N[C@@H](CC1CCCCC1)[C@@H](O)CC(=O)c1ccccc1` [Example 38] it was 39.2 nM.
Turning to `O=C(C[C@H](O)[C@H](CC1CCCCC1)NC(=O)[C@H](Cc1c[nH]cn1)NC(=O)[C@@H](CC(=O)N1CCOCC1)Cc1cccc2ccccc12)c1ccccc1` [Example 40], in test [1], the IC50 is 18.1 nM. Besides, at Plasma renin activity (15 mg/kg orally), the “Renin inhibition potency, Max” value was 44%; the “Renin inhibition potency, Mean” value is 30%; the “Renin inhibition potency, 4 h” value is listed as 44%.
In the case of `O=C(C[C@H](O)[C@H](CC1CCCCC1)NC(=O)[C@H](Cc1c[nH]cn1)NC(=O)[C@@H](CC(=O)N1CCOCC1)Cc1cccc2ccccc12)c1ccncc1` [Example 42], the IC50 in test [1] is 13 nM.
As to `O=C(N[C@@H](CC1CCCCC1)[C@@H](O)CNS(=O)(=O)N1CCOCC1)[C@H](Cc1cscn1)NC(=O)[C@H](Cc1ccccc1)NS(=O)(=O)N1CCOCC1` [Example 53], the IC50 in test [1] is 0.36 nM. In addition, at Plasma renin activity (15 mg/kg orally), the “Renin inhibition potency, Max” value was 96%; the “Renin inhibition potency, Mean” value is 85%; the “Renin inhibition potency, 4 h” value came to 94%; the “Renin inhibition potency, 8 h” value is reported as 73%.
Consider `CN(C)S(=O)(=O)NCC(O)C(CC1CCCCC1)NC(=O)C(Cc1cscn1)NC(=O)C(Cc1ccccc1)NS(=O)(=O)N1CCOCC1` (centres unmarked) [Example 56], for which, in test [1], the IC50 is 0.7 nM. Besides, at Plasma renin activity (15 mg/kg orally), the “Renin inhibition potency, Max” value is 93%; the “Renin inhibition potency, Mean” value is recorded as 72%; the “Renin inhibition potency, 4 h” value is 82%; the “Renin inhibition potency, 8 h” value is 85%.
In the case of `CC(C)(C)S(=O)(=O)C[C@@H](Cc1ccccc1)C(=O)N[C@@H](Cc1cscn1)C(=O)N[C@@H](CC1CCCCC1)[C@@H](O)CNS(=O)(=O)c1ccccc1` [Example 62], the IC50 in test [1] was found to be 1.24 nM.
On to `CC(C)(C)S(=O)(=O)CC(Cc1ccccc1)C(=O)NC(Cc1cscn1)C(=O)NC(CC1CCCCC1)C(O)CNS(C)(=O)=O` (centres unmarked) [Example 69], for which, in test [1], the IC50 came out at 0.53 nM.
As for `CC(C)OC(=O)C(O)C(CC1CCCCC1)NC(=O)[C@H](Cc1cnc[nH]1)NC(=O)[C@@H](CC(=O)N1CCOCC1)Cc1cccc2ccccc12` (some centres unmarked) [KRI-1314, reference compound], the IC50 in test [1] is 21.3 nM.

For the origin of these results see patent publication US5272268A, “Dipeptide derivatives” (Shionogi & Co., Ltd., priority 1990, dated 1993).
